Reference: patent US20240245670A1, “DOSING REGIMEN AND PHARMACEUTICAL COMBINATION COMPRISING 3-(1-OXOISOINDOLIN-2-YL)PIPERIDINE-2,6-DIONE DERIVATIVES” (Novartis AG, priority 2018, published 2024)

How the values were obtained:
[1] = test system: cynomolgus monkeys; assay: 4-week GLP toxicology study in cynomolgus monkeys; type: in vivo
Method: The starting dose of I-57 selected for this study is supported by 4-week GLP toxicology studies performed in cynomolgus monkeys. […] GLP toxicity studies identified 30 mg/kg as the HNSTD in monkey and supported a starting dose up to 100 mg QD in human (BSA scaled HED and using a safety factor of 6). The selected dose of 20 mg is anticipated to result in a significant but sub-maximal IKZF2 degradation in human PBMCs and TILs (50-90%), based on PK/PD modeling of I-57 exposure and IKZF2 degradation in cynomolgus PBMCs. More IKZF2 degradation may be required to change downstream biology. Therefore, 20 mg is considered safe. Escalation from this starting dose will facilitate the determination of the minimal required dose which provides optimal IKZF2 degradation to impact downstream biological activity.

[2] = In vitro metabolism in liver microsomes and hepatocytes across species; type: in vitro ADME
[3] = Toxicology studies incl. 4-week GLP studies in rats and cynomolgus monkeys; type: in vivo; settings: from 4-week GLP toxicology studies in rats (30, 100, 300 mg/kg/day) and cynomolgus monkeys (3, 10, 30 mg/kg/day)
Text: The non-clinical safety profile of I-57 was established in vitro, and in vivo in rats and cynomolgus monkeys in studies up to 4-weeks duration. Based on the outcome of these studies, QTc interval prolongation was identified as the principal safety signal for I-57. There were other toxicities such as diarrhea and vomiting in monkeys, and mortality, clinical signs and target organ toxicities in rats; however, these occurred at exposures far above those expected to result in clinical activity.
Preclinical safety data in 4-week GLP toxicology studies in rats (30, 100 and 300 mg/kg/day) and cynomolgus monkeys (3, 10 and 30 mg/kg/day) provide maximum recommended starting dose (MRSD) of 100 mg in humans. Based on non-clinical animal models including AdT studies, cynomolgus vaccination studies and cynomolgus PK/PD studies (See Example 1) I-57 at 20 mg is expected to result in submaximal IKZF2 degradation in PBMCs and tumor. This is considered safe and will permit PK/PD characterization and determination of the lowest dose of I-57 at which maximal detectable IKZF2 degradation is achieved.

[4] = PK after repeated daily oral dosing in immunized cynomolgus monkeys (Table 15); type: in vivo, cynomolgus monkey; settings: for AUC0-24 (unbound) / AUC0-24/D (unbound) / Cmax (unbound) / Cmax/D (unbound): cynomolgus monkey
Method: The PK/PD relationship of I-57 was further examined in cynomolgus monkeys after repeated daily oral doses of 0.1 and 3 mg/kg. In this study, a cohort of animals were initially immunized with an antigen-adjuvant mixture (KLH/Squalene). The experiment was designed to assess the effect of I-57 exposure, and the resulting IKZF2 degradation, on immune response during immunization to test the hypothesis that IKZF2 degradation would result in increased proliferation of stimulated T-cells. In the experiment, daily I-57 oral treatment was initiated 5 days after immunization. An immunization booster dose was administered on day 15. I-57 plasma concentration and IKZF2 expression (as determined by flow cytometry) in FOXP3+ T cells from PBMCs were determined (FIG. 9A and FIG. 9B).
Exposure levels for 3 mg/kg in cynomolgus monkeys are anticipated to correspond to ˜100 mg QD in humans.

[5] = Day 5, Group 2 (only I-57), 0.1 mg/kg/day oral
[6] = Day 5, Group 4 (I-57 + KLH + adjuvant), 0.1 mg/kg/day oral
[7] = Day 5, Group 5 (I-57 + KLH + adjuvant), 3 mg/kg/day oral
[8] = Day 29, Group 2 (only I-57), 0.1 mg/kg/day oral
[9] = Day 29, Group 4 (I-57 + KLH + adjuvant), 0.1 mg/kg/day oral
[10] = Day 29, Group 5 (I-57 + KLH + adjuvant), 3 mg/kg/day oral

O=C1CCC(N2Cc3cc(C4CCN(Cc5ccccc5)CC4)ccc3C2=O)C(=O)N1 (centres unmarked) [Compound I-57, 3-(5-(1-benzylpiperidin-4-yl)-1-oxoisoindolin-2-yl)piperidine-2,6-dione]
supported starting dose in human (BSA scaled HED, safety factor of 6) ([1]; derived from monkey HNSTD): up to 100 mg QD | HNSTD ([1]; monkey, 4-week GLP toxicity studies): 30 mg/kg | metabolic stability [2]: very stable | maximum recommended starting dose (MRSD) in humans [3]: 100 mg | AUC0-24 (unbound) [4, 5]: 56.8 ng·h/mL | AUC0-24/D (unbound) [4, 5]: 567 (ng · h/mL)/(mg/kg) | Cmax (unbound) [4, 5]: 7.10 ng/mL | Cmax/D (unbound) [4, 5]: 71.0 (ng/mL)/(mg/kg) | AUC0-24 (unbound) [4, 6]: 63.5 ng·h/mL | AUC0-24/D (unbound) [4, 6]: 634 (ng · h/mL)/(mg/kg) | Cmax (unbound) [4, 6]: 11.0 ng/mL | Cmax/D (unbound) [4, 6]: 110 (ng/mL)/(mg/kg) | AUC0-24 (unbound) [4, 7]: 2840 ng·h/mL | AUC0-24/D (unbound) [4, 7]: 946 (ng · h/mL)/(mg/kg) | Cmax (unbound) [4, 7]: 523 ng/mL | Cmax/D (unbound) [4, 7]: 175 (ng/mL)/(mg/kg) | AUC0-24 (unbound) [4, 8]: 78.1 ng·h/mL | AUC0-24/D (unbound) [4, 8]: 782 (ng · h/mL)/(mg/kg) | Cmax (unbound) [4, 8]: 13.1 ng/mL | Cmax/D (unbound) [4, 8]: 131 (ng/mL)/(mg/kg) | AUC0-24 (unbound) [4, 9]: 96.4 ng·h/mL | AUC0-24/D (unbound) [4, 9]: 965 (ng · h/mL)/(mg/kg) | Cmax (unbound) [4, 9]: 18.0 ng/mL | Cmax/D (unbound) [4, 9]: 180 (ng/mL)/(mg/kg) | AUC0-24 (unbound) [4, 10]: 3460 ng·h/mL | AUC0-24/D (unbound) [4, 10]: 1150 (ng · h/mL)/(mg/kg) | Cmax (unbound) [4, 10]: 504 ng/mL | Cmax/D (unbound) [4, 10]: 169 (ng/mL)/(mg/kg) | human dose anticipated to correspond to exposure levels ([4]; exposure levels for 3 mg/kg in cynomolgus monkeys): ~100 mg QD
